Like-named read-outs stand apart in the source and are kept apart here.
Legend:
ROCK1 = ROCK1 (Homo sapiens (Human), UniProt Q13464); experiment: Z'Lyte assay, ROCK1 inhibition at a single concentration; assay type: biochemical
ROCK2 = ROCK2 (Homo sapiens (Human), UniProt O75116); experiment: Z'Lyte assay, ROCK2 inhibition at a single concentration; assay type: biochemical
[1] = test system: cofilin phosphorylation, HeLa cells; experiment: Cofilin phosphorylation by Western Blot (anti-phospho-Ser3-cofilin) in HeLa cells; assay type: cell-based; details: for inhibition at 25 µM: Homo sapiens
LIMK1 = LIMK1 (Homo sapiens (Human), UniProt P53667); experiment: Lanthascreen Eu binding assay (TR-FRET), inhibition of LIMK1
LIMK1, sequence (P53667 whole entry): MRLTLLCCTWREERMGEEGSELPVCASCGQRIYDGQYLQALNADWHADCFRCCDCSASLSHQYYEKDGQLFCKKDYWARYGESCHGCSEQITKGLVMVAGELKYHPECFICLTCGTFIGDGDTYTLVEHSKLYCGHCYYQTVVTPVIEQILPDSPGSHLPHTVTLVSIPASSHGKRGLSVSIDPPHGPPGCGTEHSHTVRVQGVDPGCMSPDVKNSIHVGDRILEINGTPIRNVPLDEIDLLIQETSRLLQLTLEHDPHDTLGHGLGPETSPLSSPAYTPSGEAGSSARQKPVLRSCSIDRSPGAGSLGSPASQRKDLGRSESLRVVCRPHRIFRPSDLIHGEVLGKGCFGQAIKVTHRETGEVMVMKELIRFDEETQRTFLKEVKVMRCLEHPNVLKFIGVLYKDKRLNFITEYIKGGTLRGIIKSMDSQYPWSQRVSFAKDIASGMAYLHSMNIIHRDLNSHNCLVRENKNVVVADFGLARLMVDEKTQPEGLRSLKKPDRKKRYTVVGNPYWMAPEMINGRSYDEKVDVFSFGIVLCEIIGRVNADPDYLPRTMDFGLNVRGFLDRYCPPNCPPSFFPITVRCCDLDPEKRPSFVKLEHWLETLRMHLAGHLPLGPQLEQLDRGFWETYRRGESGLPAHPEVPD

LIMK2 = LIMK2 (Homo sapiens (Human), UniProt P53671); experiment: Lanthascreen Eu binding assay (TR-FRET), inhibition of LIMK2
LIMK2, sequence (P53671 whole entry): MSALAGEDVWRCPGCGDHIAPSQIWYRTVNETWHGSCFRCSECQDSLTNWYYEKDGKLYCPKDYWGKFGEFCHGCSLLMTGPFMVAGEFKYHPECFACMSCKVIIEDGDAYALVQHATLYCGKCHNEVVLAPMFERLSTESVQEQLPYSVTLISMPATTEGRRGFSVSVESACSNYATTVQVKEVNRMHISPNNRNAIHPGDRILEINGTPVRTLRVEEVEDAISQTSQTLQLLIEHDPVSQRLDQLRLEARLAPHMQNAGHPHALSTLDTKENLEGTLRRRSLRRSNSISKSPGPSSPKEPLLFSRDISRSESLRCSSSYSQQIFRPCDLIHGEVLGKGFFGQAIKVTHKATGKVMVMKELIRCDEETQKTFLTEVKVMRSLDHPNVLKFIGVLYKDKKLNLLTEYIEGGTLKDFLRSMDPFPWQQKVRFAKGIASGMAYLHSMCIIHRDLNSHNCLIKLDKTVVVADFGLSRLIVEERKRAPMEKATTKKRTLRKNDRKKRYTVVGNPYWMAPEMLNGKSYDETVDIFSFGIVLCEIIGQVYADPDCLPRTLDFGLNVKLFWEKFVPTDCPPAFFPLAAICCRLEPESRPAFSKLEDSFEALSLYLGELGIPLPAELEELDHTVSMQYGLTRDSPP

[2] = read-out: % inhibition (ROCK1) 1 uM, 1 uM
[3] = read-out: % inhibition (ROCK2) 1 uM, 1 uM
[4] = HeLa, 2 h, read-out: % inhibition of cofilin phosphorylation in HeLa cells (treatment 2 h, at 25 μM), Table 2, normalized to the control condition DMSO
[5] = read-out: % inhibition Cofilin phosphorylation HeLa cells treated 2 h with 25 uM of inhibitor, HeLa cells, 2 h, 25 uM
[6] = HeLa, 2 h, read-out: % inhibition Cofilin phosphorylation HeLa cells treated 2 h with 25 uM of inhibitor
[7] = HeLa, 2 h, read-out: % inhibition of cofilin phosphorylation in HeLa cells (treatment 2 h, at 25 μM)
[8] = read-out: % inhibition (ROCK1) 1 uM
[9] = read-out: % inhibition (ROCK2) 1 uM

ROCK2, sequence (O75116 whole entry): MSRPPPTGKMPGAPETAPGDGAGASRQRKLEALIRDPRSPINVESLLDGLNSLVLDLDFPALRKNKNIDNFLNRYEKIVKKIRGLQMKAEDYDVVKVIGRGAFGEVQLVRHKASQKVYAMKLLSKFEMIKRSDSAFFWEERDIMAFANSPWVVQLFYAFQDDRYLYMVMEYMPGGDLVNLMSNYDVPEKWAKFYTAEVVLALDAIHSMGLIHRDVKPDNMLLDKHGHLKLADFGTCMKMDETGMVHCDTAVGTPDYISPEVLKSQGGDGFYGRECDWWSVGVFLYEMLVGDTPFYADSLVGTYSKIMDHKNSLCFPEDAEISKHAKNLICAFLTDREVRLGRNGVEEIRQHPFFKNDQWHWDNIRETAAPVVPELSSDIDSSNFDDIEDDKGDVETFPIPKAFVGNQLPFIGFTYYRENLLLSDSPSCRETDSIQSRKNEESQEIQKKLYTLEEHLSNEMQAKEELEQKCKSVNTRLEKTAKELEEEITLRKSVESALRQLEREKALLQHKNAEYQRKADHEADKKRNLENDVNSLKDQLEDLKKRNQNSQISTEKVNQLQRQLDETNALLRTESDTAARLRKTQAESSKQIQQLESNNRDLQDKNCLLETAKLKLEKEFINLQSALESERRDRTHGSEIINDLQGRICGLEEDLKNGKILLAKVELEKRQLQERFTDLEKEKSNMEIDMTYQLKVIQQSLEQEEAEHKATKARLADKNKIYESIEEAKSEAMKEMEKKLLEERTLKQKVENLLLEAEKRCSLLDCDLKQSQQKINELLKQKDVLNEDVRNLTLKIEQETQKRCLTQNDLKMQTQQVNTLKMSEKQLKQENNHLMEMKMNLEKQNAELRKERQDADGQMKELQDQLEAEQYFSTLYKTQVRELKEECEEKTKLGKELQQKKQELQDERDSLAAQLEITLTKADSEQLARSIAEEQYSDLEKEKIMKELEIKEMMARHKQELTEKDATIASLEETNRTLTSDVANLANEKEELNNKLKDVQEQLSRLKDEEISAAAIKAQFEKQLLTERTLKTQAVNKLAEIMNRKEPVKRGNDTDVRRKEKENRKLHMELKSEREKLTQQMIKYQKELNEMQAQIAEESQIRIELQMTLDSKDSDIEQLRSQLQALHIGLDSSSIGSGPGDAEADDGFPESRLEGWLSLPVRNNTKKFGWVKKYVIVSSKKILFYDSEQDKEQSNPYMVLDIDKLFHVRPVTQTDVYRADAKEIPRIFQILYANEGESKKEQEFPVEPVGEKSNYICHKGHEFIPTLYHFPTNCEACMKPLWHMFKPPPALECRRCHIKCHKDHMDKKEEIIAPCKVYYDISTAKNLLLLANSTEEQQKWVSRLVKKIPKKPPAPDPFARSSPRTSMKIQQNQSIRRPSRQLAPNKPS
ROCK1, sequence (Q13464 whole entry): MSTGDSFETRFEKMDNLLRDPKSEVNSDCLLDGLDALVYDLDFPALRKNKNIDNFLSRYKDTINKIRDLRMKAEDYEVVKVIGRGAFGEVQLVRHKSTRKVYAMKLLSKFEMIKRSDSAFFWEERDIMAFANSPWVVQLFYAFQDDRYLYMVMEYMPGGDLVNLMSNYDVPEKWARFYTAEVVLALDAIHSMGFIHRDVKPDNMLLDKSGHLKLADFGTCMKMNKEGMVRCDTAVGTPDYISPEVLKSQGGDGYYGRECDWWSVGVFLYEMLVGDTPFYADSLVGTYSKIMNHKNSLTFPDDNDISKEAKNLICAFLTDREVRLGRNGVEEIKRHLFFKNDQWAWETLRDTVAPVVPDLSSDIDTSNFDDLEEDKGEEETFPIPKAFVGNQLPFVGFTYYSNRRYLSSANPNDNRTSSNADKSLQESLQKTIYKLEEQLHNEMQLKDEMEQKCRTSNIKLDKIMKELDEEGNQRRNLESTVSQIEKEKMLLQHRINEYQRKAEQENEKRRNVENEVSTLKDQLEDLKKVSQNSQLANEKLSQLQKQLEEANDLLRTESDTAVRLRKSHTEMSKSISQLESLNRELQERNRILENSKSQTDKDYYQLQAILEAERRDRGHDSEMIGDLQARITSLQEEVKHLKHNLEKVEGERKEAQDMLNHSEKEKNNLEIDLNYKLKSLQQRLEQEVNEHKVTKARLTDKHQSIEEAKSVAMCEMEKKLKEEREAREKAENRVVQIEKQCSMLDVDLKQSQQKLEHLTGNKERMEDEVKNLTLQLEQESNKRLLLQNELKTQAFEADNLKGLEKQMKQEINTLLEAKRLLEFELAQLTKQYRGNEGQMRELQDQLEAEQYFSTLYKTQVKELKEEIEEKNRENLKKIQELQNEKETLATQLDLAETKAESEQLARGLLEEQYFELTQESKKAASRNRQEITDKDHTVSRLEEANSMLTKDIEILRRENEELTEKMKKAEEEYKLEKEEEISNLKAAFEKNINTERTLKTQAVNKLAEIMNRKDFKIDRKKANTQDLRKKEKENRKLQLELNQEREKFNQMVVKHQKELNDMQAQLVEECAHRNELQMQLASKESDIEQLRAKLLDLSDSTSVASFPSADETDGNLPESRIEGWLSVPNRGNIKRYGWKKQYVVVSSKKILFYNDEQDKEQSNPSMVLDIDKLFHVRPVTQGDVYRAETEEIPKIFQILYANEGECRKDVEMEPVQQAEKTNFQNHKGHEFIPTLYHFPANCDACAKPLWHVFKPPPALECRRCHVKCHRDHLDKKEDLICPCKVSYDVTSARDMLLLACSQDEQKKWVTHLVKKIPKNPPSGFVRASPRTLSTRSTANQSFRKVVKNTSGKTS

| SMILES | Ki (LIMK1; Lanthascreen Eu binding assay) [nM] | Ki (LIMK2; Lanthascreen Eu binding assay) [nM] | inhibition at 1 µM (ROCK1; [2]) [%] | inhibition at 1 µM (ROCK2; [3]) [%] | inhibition at 25 µM [1, 4] [%] | inhibition at 25 µM [1, 5] [%] | inhibition at 1 µM (ROCK1; [8]) [%] | inhibition at 1 µM (ROCK2; [9]) [%] | also measured |
| --- | --- | --- | --- | --- | --- | --- | --- | --- | --- |
| Cc1c[nH]c2ncnc(C3=CC(C)N(C(=O)Nc4cccc(Br)c4)CC3)c12 (centres unmarked) [Compound 49a-49b, N-(3-bromophenyl)-6-methyl-4-(5-methyl-7H-pyrrolo[2,3-d]pyrimidin-4-yl)-3,6-dihydropyridine-1(2H)-carboxamide (49a) and N-(3-bromophenyl)-2-methyl-4-(5-methyl-7H-pyrrolo[2,3-d]pyrimidin-4-yl)-3,6-dihydropyridine-1(2H)-carboxamide (49b)] | – | – | – | – | – | – | – | – | % inhibition (ROCK1) 1 uM (ROCK1): 96%; % inhibition (ROCK2) 1 uM (ROCK2): 98%; % inhibition Cofilin phosphorylation HeLa cells treated 2 h with 25 uM of inhibitor [1]: 88.1%; % inhibition of cofilin phosphorylation in HeLa cells (treatment 2 h, at 25 μM) [1]: 88.1% |
| O=C(Nc1cccc(Oc2ccccc2)c1)N1CC=C(c2ncnc3[nH]cc(C4CC4)c23)CC1 [Compound 79, 4-(5-Cyclopropyl-7H-pyrrolo[2,3-d]pyrimidin-4-yl)-N-(3-phenoxyphenyl)-3,6-dihydropyridine-1(2H)-carboxamide] | 42.5 | 10.9 | 6 | 8 | 83.1 | 83.1 | – | – | – |
| O=C(Nc1cccc(-n2cccc2)c1)N1CC=C(c2ncnc3[nH]cc(C4CC4)c23)CC1 [Compound 81, 4-(5-Cyclopropyl-7H-pyrrolo[2,3-d]pyrimidin-4-yl)-N-(3-pyrrol-1-ylphenyl)-3,6-dihydropyridine-1(2H)-carboxamide] | – | – | 36 | 35 | – | – | – | – | inhibition at 25 µM [1, 6]: 90%; inhibition at 25 µM [1, 7]: 90% |
| COc1cccc(Oc2cccc(NC(=O)N3CC=C(c4ncnc5[nH]cc(C6CC6)c45)CC3)c2)c1 [Compound 82, 4-(5-Cyclopropyl-7H-pyrrolo[2,3-d]pyrimidin-4-yl)-N-[3-(3-methoxyphenoxy)phenyl]-3,6-dihydropyridine-1(2H)-carboxamide] | 47.4 | 20.3 | 16 | 11 | 82.7 | 82.7 | – | – | – |
| O=C(Nc1cccc(Cl)c1)N1CC=C(c2ncnc3[nH]c4c(c23)CCC4)CC1 [Compound 111, N-(3-Chlorophenyl)-4-(5,6,7,8-tetrahydrocyclopenta[4,5]pyrrolo[2,3-d]pyrimidin-4-yl)-3,6-dihydropyridine-1(2H)-carboxamide] | 5.78 | 25.5 | – | – | 82.3 | 82.3 | 10 | 14 | – |
| O=C(Nc1cccc(Br)c1)N1CC=C(c2ncnc3[nH]c4c(c23)CCC4)CC1 [Compound 112, N-(3-Bromophenyl)-4-(5,6,7,8-tetrahydrocyclopenta[4,5]pyrrolo[2,3-d]pyrimidin-4-yl)-3,6-dihydropyridine-1(2H)-carboxamide] | – | – | – | – | – | – | 8 | 13 | Ki (LIMK1): 7 nM; Ki (LIMK2): 24 nM; inhibition at 25 µM [1, 6]: 84.5%; inhibition at 25 µM [1, 7]: 84.5% |
| O=C(Nc1cccc(F)c1)N1CC=C(c2ncnc3[nH]c4c(c23)CCCC4)CC1 [Compound 113, N-(3-Fluorophenyl)-4-(6,7,8,9-tetrahydro-5H-pyrimido[4,5-b]indol-4-yl)-3,6-dihydropyridine-1(2H)-carboxamide] | 7.13 | 25.6 | 7 | 4 | – | 87 | – | – | – |
| O=C(Nc1cccc(Br)c1)N1CC=C(c2ncnc3[nH]c4c(c23)CCCC4)CC1 [Compound 115, N-(3-Bromophenyl)-4-(6,7,8,9-tetrahydro-5H-pyrimido[4,5-b]indol-4-yl)-3,6-dihydropyridine-1(2H)-carboxamide] | – | – | – | – | – | – | 7 | 11 | Ki (LIMK1): 5.37 nM; Ki (LIMK2): 16.2 nM; inhibition at 25 µM [1, 6]: 81.8%; inhibition at 25 µM [1, 7]: 81.8% |
| O=C(Nc1cccc(F)c1)N1CC=C(c2ncnc3[nH]c4c(c23)CCCCC4)CC1 [Compound 116, N-(3-Fluorophenyl)-4-(5,6,7,8,9,10-hexahydrocyclohepta[4,5]pyrrolo[2,3-d]pyrimidin-4-yl)-3,6-dihydropyridine-1(2H)-carboxamide] | 16.5 | 64 | -8 | -7 | 73.1 | 73.1 | – | – | – |
| O=C(Nc1cccc(Cl)c1)N1CC=C(c2ncnc3[nH]c4c(c23)CCCCC4)CC1 [Compound 117, N-(3-Chlorophenyl)-4-(5,6,7,8,9,10-hexahydrocyclohepta[4,5]pyrrolo[2,3-d]pyrimidin-4-yl)-3,6-dihydropyridine-1(2H)-carboxamide] | 22 | 61.3 | – | – | – | 69.2 | 4 | 7 | – |
| O=C(Nc1cccc(Br)c1)N1CC=C(c2ncnc3[nH]c4c(c23)CCCCC4)CC1 [Compound 118, N-(3-Bromophenyl)-4-(5,6,7,8,9,10-hexahydrocyclohepta[4,5]pyrrolo[2,3-d]pyrimidin-4-yl)-3,6-dihydropyridine-1(2H)-carboxamide] | – | – | – | – | – | – | 10 | -4 | Ki (LIMK1): 14.7 nM; Ki (LIMK2): 40.4 nM; inhibition at 25 µM [1, 6]: 84.2%; inhibition at 25 µM [1, 7]: 84.2% |
| O=C(Nc1ccccc1)N1CC=C(c2ncnc3[nH]c4c(c23)CCC4)CC1 [Compound 119, N-Phenyl-4-(5,6,7,8-tetrahydrocyclopenta[4,5]pyrrolo[2,3-d]pyrimidin-4-yl)-3,6-dihydropyridine-1(2H)-carboxamide] | 7.98 | 30.4 | – | – | – | 64.1 | 0 | 11 | – |
| COc1cccc(NC(=O)N2CC=C(c3ncnc4[nH]c5c(c34)CCC5)CC2)c1 [Compound 121, N-(3-Methoxyphenyl)-4-(5,6,7,8-tetrahydrocyclopenta[4,5]pyrrolo[2,3-d]pyrimidin-4-yl)-3,6-dihydropyridine-1(2H)-carboxamide] | 6.1 | 25.2 | 3 | 18 | – | 64.5 | – | – | – |
| N#Cc1cccc(NC(=O)N2CC=C(c3ncnc4[nH]c5c(c34)CCC5)CC2)c1 [Compound 127, N-(3-Cyanophenyl)-4-(7,9,11-triazatricyclo[6.4.0.02,6]dodeca-1(8),2(6),9,11-tetraen-12-yl)-3,6-dihydropyridine-1(2H)-carboxamide] | 8.19 | 39.3 | 3 | 20 | – | 68.5 | – | – | – |
| O=C(Nc1cccc(C(F)(F)F)c1)N1CC=C(c2ncnc3[nH]c4c(c23)CCC4)CC1 [Compound 128, 4-(7,9,11-Triazatricyclo[6.4.0.02,6]dodeca-1(8),2(6),9,11-tetraen-12-yl)-N[3(trifluoromethyl)phenyl]-3,6-dihydropyridine-1(2H)-carboxamide] | 27.1 | 68.3 | – | – | – | – | – | – | % inhibition (ROCK2) 1 uM (ROCK2; 1 uM): −14%; % inhibition Cofilin phosphorylation HeLa cells treated 2 h with 25 uM of inhibitor ([1]; HeLa cells, 2 h, 25 uM): 83.9%; % inhibition of cofilin phosphorylation in HeLa cells (treatment 2 h, at 25 μM) ([1]; Table 2, normalized to the control condition DMSO): 83.9% |
| CCc1cccc(NC(=O)N2CC=C(c3ncnc4[nH]c5c(c34)CCC5)CC2)c1 [Compound 129, N-(3-Ethylphenyl)-4-(7,9,11-triazatricyclo[6.4.0.02,6]dodeca-1(8),2(6),9,11-tetraen-12-yl)-3,6-dihydropyridine-1(2H)-carboxamide] | 16.6 | 54.9 | 18 | 11 | 84.5 | 84.5 | – | – | – |
